Among the data in US7122683B2, “Amides useful as monoamine re-uptake inhibitors” (Pfizer Inc., priority 2004, dated 2006) are Ki values, retold here.

Test [1] deals with T1, human serotonin transporter (hSERT) (Homo sapiens, UniProt P31645).
T1 construct: expressed in transfected cells; host or cells: HEK-293
In words: SPA radioligand binding at human serotonin transporter (3H-citalopram). The settings on record: hSERT membranes from HEK-293 cells, Ki from IC50 by Cheng-Prusoff, geometric mean, read-out: SRI Ki. On the procedure: (§1) The compounds were tested for biological activity by their ability to inhibit binding of selective radioligands at the human serotonin and noradrenaline transporters (SERT and NET, respectively), using scintillation proximity assay (SPA) technology. The SPA binding was performed using cellular membrane preparations prepared from cell lines expressing human cDNA encoding either SERT or NET (hSERT, hNET), using the radioligands ^3H-citalopram and ^3H-nisoxetine.
(§2) Human embryonic kidney cells (HEK-293) expressing each transporter were maintained as a continuous culture, using standard cell culture techniques, in 50 mL of growth medium (see Media and Buffers for composition) in 225 cm^2 flasks, at 37° C. in a humidified atmosphere with 5% CO2 present. Cells were passaged from a 90% confluent monolayer at a ratio of 1:3–1:4.
(§3) For cell harvesting, the growth medium was removed from the monolayer and the cells were incubated with cell dissociation solution (Sigma) until showing signs of dissociation. The cells were subsequently knocked from the base of the flask and pelleted by centrifugation for storage (frozen at −80° C.) prior to further use.
(§4) Cell pellets were thawed on ice and resuspended in 3 mL of membrane preparation buffer (see Media and Buffers for composition) per 1 mL of packed cell volume, using a vortex mixer to disperse the cell pellet. After incubation on ice for 10 minutes, the suspension was homogenised for four individual 10 second intervals using a hand-held homogeniser. The homogenate was then centrifuged at 1075×g for 20 minutes at 4° C.
(§5) The supernatants were then collected and retained. […]
(§6) The pooled supernatants were centrifuged at 35000×g for 30 minutes at 4° C., and the supernatants discarded. […] Protein concentrations were then measured and the membrane suspension was finally frozen in aliquots of set volume and stored at −80° C. prior to use in assays.
(§7) The specific SPA bead type differed for each transporter, wheat germ agglutinin-coated yttrium silicate (YSi WGA) SPA beads were used for hSERT and WGA-coated polyvinyltoluene (PVT WGA) SPA beads for hNET assays. For each batch of membrane used, optimal concentrations of bead and membrane were determined
(§8) Tritiated radioligands specific to each transporter (^3H-citalopram for hSERT and ^3H-nisoxetine for hNET) were used. The assay free radioligand concentration was expressed as a percentage of the total free radioligand concentration to give an estimate of the radioligand depletion. […]
(§9) The affinity of the specific radioligand for the respective transporter was determined for each membrane batch at the selected protein and bead concentrations. […]
(§10) The mean KD for a radioligand at a batch of membranes was determined from data from a minimum of three separate assays. […]

For test [2], the target named is T2, human noradrenaline transporter (hNET) (Homo sapiens, UniProt P23975).
T2 construct: expressed in transfected cells; host or cells: HEK-293
In words: SPA radioligand binding at human noradrenaline transporter (3H-nisoxetine). The settings on record: hNET membranes from HEK-293 cells, Ki from IC50 by Cheng-Prusoff, geometric mean, read-out: NRI Ki. On the procedure:
as §1, §2, §3, §4, §5, §6, §7, §8, §9, §10

Where a name gives a salt, the structure may show the parent alone.

T1 sequence (P31645 whole entry): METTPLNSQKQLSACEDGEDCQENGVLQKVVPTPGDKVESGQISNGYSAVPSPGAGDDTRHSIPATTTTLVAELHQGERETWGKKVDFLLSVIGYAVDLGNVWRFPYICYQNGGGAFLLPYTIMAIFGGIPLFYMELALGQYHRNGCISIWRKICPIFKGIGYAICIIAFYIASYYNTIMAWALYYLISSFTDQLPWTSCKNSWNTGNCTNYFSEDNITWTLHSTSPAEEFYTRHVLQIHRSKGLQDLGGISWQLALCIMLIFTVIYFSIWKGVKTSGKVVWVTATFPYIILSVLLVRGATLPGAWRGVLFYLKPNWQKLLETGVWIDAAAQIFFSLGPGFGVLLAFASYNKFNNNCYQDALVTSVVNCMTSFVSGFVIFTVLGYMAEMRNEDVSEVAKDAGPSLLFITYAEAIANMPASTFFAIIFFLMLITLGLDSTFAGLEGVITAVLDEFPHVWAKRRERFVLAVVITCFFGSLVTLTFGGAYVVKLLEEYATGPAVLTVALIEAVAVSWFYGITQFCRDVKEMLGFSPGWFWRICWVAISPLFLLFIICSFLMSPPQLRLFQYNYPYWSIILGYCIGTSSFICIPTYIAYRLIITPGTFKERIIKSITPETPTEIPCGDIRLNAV
T2 sequence (P23975 whole entry): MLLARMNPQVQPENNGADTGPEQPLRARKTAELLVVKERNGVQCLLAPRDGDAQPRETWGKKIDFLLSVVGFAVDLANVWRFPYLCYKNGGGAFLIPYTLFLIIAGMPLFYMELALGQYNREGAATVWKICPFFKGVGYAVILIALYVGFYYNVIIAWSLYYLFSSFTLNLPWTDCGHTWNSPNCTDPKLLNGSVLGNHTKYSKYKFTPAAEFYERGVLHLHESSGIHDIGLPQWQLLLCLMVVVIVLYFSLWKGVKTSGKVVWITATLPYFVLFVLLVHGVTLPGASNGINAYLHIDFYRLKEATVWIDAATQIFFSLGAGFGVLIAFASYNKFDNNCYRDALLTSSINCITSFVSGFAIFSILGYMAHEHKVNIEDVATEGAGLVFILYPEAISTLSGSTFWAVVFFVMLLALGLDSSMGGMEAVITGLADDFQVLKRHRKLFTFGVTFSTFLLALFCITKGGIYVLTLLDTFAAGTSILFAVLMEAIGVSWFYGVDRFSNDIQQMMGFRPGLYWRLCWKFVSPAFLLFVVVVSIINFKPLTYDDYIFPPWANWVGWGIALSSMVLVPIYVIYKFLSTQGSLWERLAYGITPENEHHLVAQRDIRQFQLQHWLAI

By Ki is commonly meant a measure of affinity in units of concentration, obtained from inhibition or displacement. As for `O=C(c1ccccc1Cl)N(C1CCCCC1)[C@H]1CCNC1` [Example 14, 2-chloro-N-cyclohexyl-N-[(3S)pyrrolidin-3-yl]benzamide], the Ki was found to be 11 nM in test [1] and 9 nM in test [2].
Turning to `Cc1c(Cl)cccc1C(=O)N(CC1(C)CC1)[C@H]1CCNC1` [Example 20, 3-chloro-2-methyl-N-[(1-methylcyclopropyl)methyl]-N-[(3S)pyrrolidin-3-yl]benzamide hydrochloride], the Ki in test [1] worked out at 3 nM; in test [2], 14 nM.
`O=C(c1cccc(Cl)c1Cl)N(C1CCCC1)[C@H]1CCNC1` [Example 1, 2,3-dichloro-N-cyclopentyl-N-[(3S)pyrrolidin-3-yl]benzamide hemi-edisylate]: the Ki came to 5 nM in test [1] and 15 nM in test [2].
The corresponding values for `O=C(c1cccc(Cl)c1Cl)N(C1CCCCC1)[C@H]1CCNC1` [Example 6, 2,3-dichloro-N-cyclohexyl-N-[(3S)-pyrrolidin-3-yl]benzamide hydrochloride] are 9 nM and 11 nM.
